Assay results taken from patent publication US20100267561A1, “HERBICIDAL PYRIDAZINONE DERIVATIVES” (priority 2007, published 2010).

How the values were obtained:
Format in all cases: in vivo
[1] = tested on: wheat (Triticum aestivum); test: Test A pre-/postemergence plant response
How it was run: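 Both pre- and postemergence treatment given concurrently; postemergence seedlings measured 2–10 cm at the one- to two-leaf stage. Visual injury, 0–100 scale versus untreated, at ~10 days.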

[2] = tested on: Italian ryegrass (Lolium multiflorum); test: Test B pre-/postemergence plant response
From the text: (§1) Seeds of plant species selected from blackgrass (Alopecurus myosuroides), downy bromegrass (Bromus tectorum), green foxtail (Setaria viridis), Italian ryegrass (Lolium multiflorum), wheat (Triticum aestivum), wild oat (Avena fatua), catchweed bedstraw (Galium aparine), bermudagrass (Cynodon dactylon), surinam grass (Brachiaria decumbens), cocklebur (Xanthium strumarium), corn (Zea mays), large crabgrass (Digitaria sanguinalis), woolly cupgrass (Eriochloa villosa), giant foxtail (Setaria faberii), goosegrass (Eleusine indica), johnsongrass (Sorghum halepense), kochia (Kochia scoparia), lambsquarters (Chenopodium album), morningglory (Ipomoea coccinea), eastern black (E.B.) nightshade (Solanum ptycanthum), yellow nutsedge (Cyperus esculentus), pigweed (Amaranthus retroflexus), common ragweed (Ambrosia elation), Russian thistle (Salsola iberica), soybean (Glycine max), common (oilseed) sunflower (Helianthus annuus), and velvetleaf (Abutilon theophrasti) were planted and treated preemergence with test chemicals formulated in a non-phytotoxic solvent mixture which included a surfactant.
(§2) At the same time, plants selected from these crop and weed species and also winter barley (Hordeum vulgare), canarygrass (Phalaris minor), chickweed (Stellaria media) and windgrass (Apera spica-venti) were treated with postemergence applications of some of the test chemicals formulated in the same manner. Plants ranged in height from 2 to 18 cm (1- to 4-leaf stage) for postemergence treatments.
(§3) Plant species in the flooded paddy test consisted of rice (Oryza sativa), umbrella sedge (Cyperus difformis), ducksalad (Heteranthera limosa) and barnyardgrass (Echinochloa crus-galli) grown to the 2-leaf stage for testing. At time of treatment, test pots were flooded to 3 cm above the soil surface, treated by application of test compounds directly to the paddy water, and then maintained at that water depth for the duration of the test. Treated plants and controls were maintained in a greenhouse for 13 to 15 days, after which time all species were compared to controls and visually evaluated. Plant response ratings, summarized in Table B, are based on a scale of 0 to 100 where 0 is no effect and 100 is complete control. A dash (-) response means no test result.

[3] = tested on: cocklebur (Xanthium strumarium); test: Test B pre-/postemergence plant response
From the text: as §1, §2, §3

[4] = tested on: common ragweed (Ambrosia elation); test: Test B pre-/postemergence plant response
From the text: as §1, §2, §3

[5] = tested on: eastern black (E.B.) nightshade (Solanum ptycanthum); test: Test B pre-/postemergence plant response; details: Preemergence
From the text: as §1, §2, §3

[6] = tested on: goosegrass (Eleusine indica); test: Test B pre-/postemergence plant response
From the text: as §1, §2, §3

kochia (Kochia scoparia) = test: Test B pre-/postemergence plant response
From the text: as §1, §2, §3

[7] = tested on: pigweed (Amaranthus retroflexus); test: Test B pre-/postemergence plant response
From the text: as §1, §2, §3

soybean (Glycine max) = test: Test B pre-/postemergence plant response
From the text: as §1, §2, §3

[8] = tested on: woolly cupgrass (Eriochloa villosa); test: Test B pre-/postemergence plant response
From the text: as §1, §2, §3

[9] = tested on: yellow nutsedge (Cyperus esculentus); test: Test B pre-/postemergence plant response
From the text: as §1, §2, §3

[10] = Postemergence, 31 g ai/ha, scale 0 to 100, 0 no effect, 100 complete control
[11] = Postemergence, 62 g ai/ha, scale 0 to 100
[12] = Postemergence, 125 g ai/ha, scale 0 to 100
[13] = Postemergence, 250 g ai/ha, scale 0 to 100
[14] = Preemergence, 31 g ai/ha, 0 to 100 scale, 0 no effect, 100 complete control
[15] = Preemergence, 62 g ai/ha, scale 0 to 100
[16] = Preemergence, 125 g ai/ha, scale 0 to 100
[17] = Preemergence, 250 g ai/ha, scale 0 to 100

Substance: 4-[3-(4-chlorophenyl)-5-methyl-1H-pyrazol-3-yl]-5-hydroxy-2-methyl-3(2H)-pyridazinone [Compound 3]
- Plant response rating, Wheat ([1]; Postemergence, 125 g ai/ha, 0 to 100 scale, 0 no effect, 100 complete control): 70
- Plant response rating, Wheat ([1]; Postemergence, 500 g ai/ha, 0 to 100 scale, 0 no effect, 100 complete control): 90
- Plant response rating, Wheat ([1]; Preemergence, 125 g ai/ha, 0 to 100 scale (0 no effect, 100 complete control)): 70
- Plant response rating, Wheat ([1]; Preemergence, 500 g ai/ha, 0 to 100 scale (0 no effect, 100 complete control)): 90
- Plant response rating, Ryegrass, Italian [2, 10]: 95
- Plant response rating, Ryegrass, Italian [2, 11]: 100
- Plant response rating, Ryegrass, Italian [2, 12]: 100
- Plant response rating, Ryegrass, Italian [2, 13]: 100
- Plant response rating, Ryegrass, Italian [2, 14]: 98
- Plant response rating, Ryegrass, Italian [2, 15]: 100
- Plant response rating, Ryegrass, Italian [2, 16]: 100
- Plant response rating, Ryegrass, Italian [2, 17]: 100
- Plant response rating, Cocklebur [3, 10]: 0
- Plant response rating, Cocklebur [3, 11]: 0
- Plant response rating, Cocklebur [3, 12]: 0
- Plant response rating, Cocklebur [3, 13]: 0
- Plant response rating, Cocklebur [3, 14]: 0
- Plant response rating, Cocklebur [3, 15]: 0
- Plant response rating, Cocklebur [3, 17]: 0
- Plant response rating, Ragweed [4, 11]: 0
- Plant response rating, Ragweed [4, 12]: 0
- Plant response rating, Ragweed [4, 13]: 50
- Plant response rating, Ragweed [4, 14]: 0
- Plant response rating, Ragweed [4, 16]: 0
- Plant response rating, Ragweed [4, 17]: 0
- Plant response rating, Nightshade, E. B. ([5]; 31 g ai/ha, 0 to 100 scale, 0 no effect, 100 complete control): 90
- Plant response rating, Nightshade, E. B. ([5]; 62 g ai/ha, scale 0 to 100): 100
- Plant response rating, Nightshade, E. B. ([5]; 125 g ai/ha, scale 0 to 100): 100
- Plant response rating, Nightshade, E. B. ([5]; 250 g ai/ha, scale 0 to 100): 100
- Plant response rating, Goosegrass [6, 10]: 95
- Plant response rating, Goosegrass [6, 11]: 95
- Plant response rating, Goosegrass [6, 12]: 100
- Plant response rating, Goosegrass [6, 13]: 100
- Plant response rating, Goosegrass [6, 14]: 80
- Plant response rating, Goosegrass [6, 15]: 85
- Plant response rating, Goosegrass [6, 16]: 85
- Plant response rating, Goosegrass [6, 17]: 100
- Plant response rating, Kochia (kochia (Kochia scoparia); [10]): 0
- Plant response rating, Kochia (kochia (Kochia scoparia); [11]): 0
- Plant response rating, Kochia (kochia (Kochia scoparia); [12]): 60
- Plant response rating, Kochia (kochia (Kochia scoparia); [13]): 70
- Plant response rating, Kochia (kochia (Kochia scoparia); [14]): 0
- Plant response rating, Kochia (kochia (Kochia scoparia); [16]): 30
- Plant response rating, Kochia (kochia (Kochia scoparia); [17]): 30
- Plant response rating, Pigweed [7, 10]: 0
- Plant response rating, Pigweed [7, 11]: 0
- Plant response rating, Pigweed [7, 12]: 10
- Plant response rating, Pigweed [7, 13]: 25
- Plant response rating, Pigweed [7, 14]: 0
- Plant response rating, Pigweed [7, 15]: 90
- Plant response rating, Pigweed [7, 16]: 90
- Plant response rating, Pigweed [7, 17]: 90
- Plant response rating, Soybean (soybean (Glycine max); [10]): 0
- Plant response rating, Soybean (soybean (Glycine max); [11]): 40
- Plant response rating, Soybean (soybean (Glycine max); [12]): 40
- Plant response rating, Soybean (soybean (Glycine max); [13]): 60
- Plant response rating, Soybean (soybean (Glycine max); [14]): 0
- Plant response rating, Soybean (soybean (Glycine max); [15]): 0
- Plant response rating, Soybean (soybean (Glycine max); [16]): 0
- Plant response rating, Soybean (soybean (Glycine max); [17]): 0
- Plant response rating, Cupgrass, Woolly [8, 10]: 100
- Plant response rating, Cupgrass, Woolly [8, 11]: 100
- Plant response rating, Cupgrass, Woolly [8, 12]: 100
- Plant response rating, Cupgrass, Woolly [8, 13]: 100
- Plant response rating, Cupgrass, Woolly [8, 14]: 50
- Plant response rating, Cupgrass, Woolly [8, 15]: 50
- Plant response rating, Cupgrass, Woolly [8, 16]: 90
- Plant response rating, Cupgrass, Woolly [8, 17]: 100
- Plant response rating, Nutsedge, Yellow [9, 10]: 0
- Plant response rating, Nutsedge, Yellow [9, 11]: 0
- Plant response rating, Nutsedge, Yellow [9, 12]: 0
- Plant response rating, Nutsedge, Yellow [9, 13]: 0
- Plant response rating, Nutsedge, Yellow [9, 14]: 0
- Plant response rating, Nutsedge, Yellow [9, 15]: 0
- Plant response rating, Nutsedge, Yellow [9, 16]: 0
- Plant response rating, Nutsedge, Yellow [9, 17]: 0
